Series [1] can be described thus: Ex vivo metabolism of LAT8881 in human whole blood. The following applies: human blood, LAT8881-spiked, 37° C.; read-out: ex vivo half-life. Format: in vitro ADME. How it is done:
(§1) Human or rat blood was collected into K2EDTA tubes and approximately 2.94 mL of blood was transferred into a polypropylene tube and kept in a water bath at 37° C. […] At the indicated times, approximately 300 μL of the spiked blood sample was transferred into a vial containing 30 μL of OX Protease Inhibitor Cocktail (Sigma Aldrich; Product No. P2714), mixed well and centrifuged at 4° C. The plasma fraction was then collected, transferred into polypropylene tubes and stored at -80° C. […] […] NO:11)) and vortex-mixed with 200 μL of acetonitrile for 5 min at 1500 rpm. The resulting mixture was then centrifuged at 14000 rpm for 5 min and the supernatant was evaporated at 37° C. under a stream of nitrogen to dryness. The residue was reconstituted in 150 μL of reconstitution solution and approximately 150 μL of the reconstituted sample was transferred to a 96 well-plate for injection into the LC-MS system. […] The mobile phase was (a) 5% acetonitrile/water with 0.1% formic acid, and (b) 95% acetonitrile/water with 0.1% formic acid. Eluted peaks were analysed using mass spectrometry. For the analysis of LAT9998 (SEQ ID NO:11), a 5 μL aliquot of each plasma sample was injected into a Shimadzu Nexera UPLC system equipped with a Phenomenex Aeris Peptide XB-C18, 3.6 μm, 150×2.1 mm. The mobile phase was (a) 5% acetonitrile/water with 0.1% formic acid, and (b) 95% acetonitrile/water with 0.1% formic acid. Eluted peaks were analysed using mass spectrometry. Samples were analysed using an AB Sciex QTrap 5500 mass spectrometer with ESI in positive mode. MRM analyses were conducted with Ion Spray (IS) at 5500 V and the Curtain Gas (CUR) was set at 20. Multiple MRM transitions were monitored to ensure the chromatographic peaks observed are from the nominal compound. Results are reported as analyte peak area ratios (normalized versus internal standard peak area).

The nature of series [2]: Ex vivo metabolism of LAT8881 in rat whole blood. In kind it is in vitro ADME. The following applies: rat blood, LAT8881-spiked, 37° C.; read-out: ex vivo half-life. How it is done: as §1
For series [3] the following is noted: in vivo.

The half-life is the time needed for the level to fall by half in the phase considered.

Read-outs that look alike come from different tables or passages of the source. Positions of bridges follow the written chain, without caps; N, C: chain ends. Residues, ends and D or L forms follow the SMILES beside them.

`CC[C@H](C)[C@H](NC(=O)[C@H](CCCNC(=N)N)NC(=O)[C@H](CC(C)C)NC(=O)[C@@H](N)Cc1ccc(O)cc1)C(=O)N[C@H](C(=O)N[C@@H](CCC(N)=O)C(=O)N[C@H]1CSSC[C@@H](C(=O)NCC(=O)N[C@@H](Cc2ccccc2)C(=O)O)NC(=O)[C@H](CO)NC(=O)CNC(=O)[C@H](CCC(=O)O)NC(=O)[C@H](C(C)C)NC(=O)[C@H](CO)NC(=O)[C@H](CCCNC(=N)N)NC1=O)C(C)C` [LAT8881, YLRIVQCRSVEGSCGF] (H-YLRIVQCRSVEGSCGF-OH; disulfide 7-14; N-terminus and C-terminus assumed): the half-life is 3 to 6 min in series [1], 3 to 6 min in series [2] and below 1 min in series [3].

The record behind these values is patent US20200390850A1, “PEPTIDES AND USES THEREOF” (LATERAL IP PTY LTD, priority 2018, published 2020).
